# According to patent US20120058920A1, “Method for Identifying Inhibitors Against Dengue Virus” (priority 2009, published 2012):
# Read-outs that look alike come from different tables or passages of the source.
# Test system: dengue serotype 2
# Test: Antiviral assay (dengue serotype 2), CPE inhibition in Vero cells with ATPLite luminescence readout
# Format: cell-based, dengue virus
# Description: 3. Antiviral assays (dengue serotype 2)
# 15 μl of Vero cells (1500 cells/well) were added to a 384-well white plate containing 10 μl of four-fold serially diluted testing compound in cell culture medium with 2% FCS. 15 μl of virus stock was then added to each well at a MOI of 0.1. Cell controls received only cells and medium, while virus controls received virus but no test compound. Plates were incubated at 37° C. until the viral CPE in the virus control wells reached ˜100% (5-6 days). ATPLite (Perkin Elmer) was added to all wells according to the supplier's instructions. Briefly, 40 μl of the reconstituted lyophilized substrate solution was added to each well. The plate was shaken at 700 rpm for 2 minutes and the luminescence was measured using a Viewlux apparatus (Perkin Elmer) by taking a 0.1-0.5-second integrated reading of each test plate. The results were expressed as EC50 values defined as the concentration of compound achieving 50% inhibition of the virus-reduced luminescence signals as compared with the uninfected cell control. The signal-to-noise ratio of an assay is the ratio between the mean luminescent signals of the cell controls and the virus controls. The dynamic range is defined as the ratio between the signals at the last (maximal signal) and first point in the linear range of the dose-response curve.
# Intra-assay reproducibility was measured by performing each experiment in three identical plates with each concentration of drug in triplicate. Inter-assay reproducibility was measured by performing three independent experiments at different times under the same experimental conditions.
# [1] = Dengue virus, Vero, accuracy of the assay, value ± spread over many measurements (# data 42-54), read-out: EC50
# [2] = Dengue virus, Vero cells 1500 cells/well, MOI 0.1, 5-6 days, ATPLite, Exp. # 1, read-out: EC50 (μM) Exp. # 1
# [3] = Dengue virus, Vero cells 1500 cells/well, MOI 0.1, 5-6 days, ATPLite, Exp. # 2, read-out: EC50 (μM) Exp. # 2
# [4] = Dengue virus, Vero cells 1500 cells/well, MOI 0.1, 5-6 days, ATPLite, Exp. # 3, read-out: EC50 (μM) Exp. # 3
# [5] = Dengue virus, Vero cells 1500 cells/well, MOI 0.1, 5-6 days, ATPLite, Exp. # 4, read-out: EC50 (μM) Exp. # 4
# [6] = Dengue virus, Vero cells 1500 cells/well, MOI 0.1, 5-6 days, ATPLite, Exp. # 5, read-out: EC50 (μM) Exp. # 5
# [7] = Dengue virus, Vero cells 1500 cells/well, MOI 0.1, 5-6 days, ATPLite, Exp. # 6, read-out: EC50 (μM) Exp. # 6
# [8] = Dengue virus, Vero cells 1500 cells/well, MOI 0.1, 5-6 days, ATPLite, Exp. # 7, read-out: EC50 (μM) Exp. # 7
Compound,EC50 [1] [µM],EC50 [2] [µM],EC50 [3] [µM],EC50 [4] [µM],EC50 [5] [µM],EC50 [6] [µM],EC50 [7] [µM],EC50 [8] [µM],"EC50 (accuracy of the assay, value ± spread over 30 measurements)"
C[C@@]1(O)[C@H](O)[C@@H](CO)O[C@H]1n1ccc(N)nc1=O [2′-C-methylcytidine],12.6 ± 3.32,13.5,14.6,10.3,10.4,6.73,14,17.4,–
O=c1cnn([C@@H]2O[C@H](CO)[C@@H](O)[C@H]2O)c(=O)[nH]1 [6-Azauridine],4.53 ± 0.83,5.52,4.85,3.74,4.26,4.6,3.81,5.14,–
NC(=O)c1ncn([C@@H]2O[C@H](CO)[C@@H](O)[C@H]2O)n1 [Ribavirin],53 ± 10.2,52,53.8,43.8,42.4,47.7,69,67.5,–
Interferon-α,–,–,–,–,–,–,–,–,861.2 IU/ml ± 427.11
